Experimental data: patent US5523314A, “Compounds useful as hypoglycemic agents and for treating Alzheimer's disease” (priority 1994, dated 1996)
Counter-ions that a name gives are not always drawn. Like-named read-outs stand apart in the source and are kept apart here. Each block holds one molecule with its values, some of them ahead of it.

What was measured:
Human liver cathepsin D = target: T1, Human liver cathepsin D (Homo sapiens, UniProt P07339); assay: Cathepsin D inhibition, fluorometric assay (Tables 5 and 6); type: biochemical; conditions: for inhibition at 4.15 µg/mL (stock): Compound Stock Concentration 4.15 μg/ml; for inhibition at 8.3 µg/mL (stock): Compound Stock Concentration 8.3 μg/ml; for ability to inhibit cathepsin D: compared to structurally similar compounds known in the art, in words; for inhibition at 10 µg/mL (stock): Compound Stock Concentration 10.0 μg/ml
T1 construct: purchased Athens Research and Technology, Athens, Ga; host or cells: human liver
Procedure: Human liver cathepsin D (Athens Research and Technology, Athens, Ga.) was diluted in assay buffer, 200 mM NaOAc, pH 4.5, 150 mM NaCl to 500 ng/mL and then 100 μL of this cathepsin D solution was added to each well of a 96 well plate with the exception of control wells which received just 100 μL of assay buffer. […] Blank and enzyme control wells each received 5 μL of the DMSO vehicle.
After incubation at 37° C. for 30 minutes, cathepsin D activity was terminated by the addition of 100 μL per well of 400 mU/mL microsomal leucine aminopeptidase (EC 3.4.11.2, Sigma, St. Louis, Mo.) in 1M Tris-HCl, pH 8.0.
Following a two hour incubation at 37° C., to allow the aminopeptidase to release the fluorophore, 7-amido-4-methylcoumarin (AMC) from the products of cathepsin D cleavage, the plates were again analyzed in the fluorometer. In order to check for potential false positives, i.e., inhibitors of microsomal leucine aminopeptidase, residual aminopeptidase activity was monitored directly in each well by the addition of 20 μL/well of 2.5 mM Leu-pNA (Bachem Biosciences, Philadelphia, Pa.) in 10% DMSO.

blood glucose level = assay: Hypoglycemic activity in obese diabetic mice (Table 1); type: in vivo, male viable yellow obese-diabetic mice; conditions: for response vs control in vivo at 50 mg/kg: Mus musculus, ip
Procedure: The hypoglycemic activity of the compounds of the present invention was determined by testing the efficacy of the compounds in vivo in male viable yellow obese-diabetic mice. The test procedure is described in detail below.
Test formulations were prepared by dissolving the test compound in a saline solution containing 2% Emulphor (a polyoxyethylated vegetable oil surfactant from GAP Corp.) to provide the dose level desired. Each test formulation was administered to six viable yellow obese-diabetic mice intraperitoneally at the beginning of the experiment. Blood glucose levels were determined immediately before the first dose and at 2 and 4 hours thereafter using glucose oxidase. A mean was taken of the 6 values obtained before the first dose and at the 2 and 4 hour intervals. In Table 1, Column 1 provides the example number of the test compound, Column 2 provides the dose level of compound tested, and Columns 3 and 4 provide a measurement of the test animal's blood glucose level 2 and 4 hours after test compound administration, respectively, as a percentage of the test animal' s pre-administration blood glucose level.

[1] = 2 h, 50 mg/kg, intraperitoneal, 2 hrs, read-out: Percent of Initial Blood Glucose Level After 2 hrs.
[2] = 4 h, 50 mg/kg, intraperitoneal, 4 hrs, read-out: Percent of Initial Blood Glucose Level After 4 hrs.
[3] = 50 mg/kg, intraperitoneal, 2 hrs
[4] = 50 mg/kg, intraperitoneal, 4 hrs

T1 sequence (P07339 169-412 limits assumed): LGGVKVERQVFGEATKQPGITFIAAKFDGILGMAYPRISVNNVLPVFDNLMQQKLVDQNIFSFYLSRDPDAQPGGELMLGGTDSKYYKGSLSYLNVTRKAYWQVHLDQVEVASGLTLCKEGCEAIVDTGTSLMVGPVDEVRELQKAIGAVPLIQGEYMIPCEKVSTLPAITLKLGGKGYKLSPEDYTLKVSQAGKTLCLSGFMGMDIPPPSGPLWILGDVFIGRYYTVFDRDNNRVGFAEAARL
T1 sequence (P07339 65-161 limits assumed): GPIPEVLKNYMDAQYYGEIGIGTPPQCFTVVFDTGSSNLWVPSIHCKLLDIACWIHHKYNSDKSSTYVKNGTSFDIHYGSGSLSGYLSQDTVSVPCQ

Compound: CCCCCCCOc1ccc(C=C2SC(=S)N(N(C)C)C2=O)cc1OCCCCCCC [Example 93, 5-[(3,4-diheptoxyphenyl)methylene]-2-thioxo-3-dimethylamino-4-thiazolidinone]
IC50 (Human liver cathepsin D): 7.5 µM

IC50 (Human liver cathepsin D): 22.1 µM
inhibition at 4.15 µg/mL (stock) (Human liver cathepsin D): 41%
Compound: CC(=C1SC(=S)NC1=O)c1cccc(Oc2ccccc2)c1 [Example 78, 5-[(3-phenoxyphenyl)methylmethylene]-2-thioxo-4-thiazolidinone]

IC50 (Human liver cathepsin D): 14.3 µM
Compound: CN1C(=O)C(=Cc2cc(C(C)(C)C)c(O)c(C(C)(C)C)c2)SC1=S [Example 85, 5-[[3,5-bis(1,1-dimethylethyl)-4-hydroxyphenyl]methylene]-2-thioxo-3-methyl-4-thiazolidinone]

IC50 (Human liver cathepsin D; 50% inhibition of cathepsin D): 5.8 µM
inhibition at 8.3 µg/mL (stock) (Human liver cathepsin D): 95%
Compound: CCOc1cc(C=C2SC(=S)N(CC(=O)O)C2=O)cc(CSc2ccccc2)c1O [Example 74, 5-[[3-ethoxy-4-hydroxy-5-(methylthiophenyl)phenyl]methylene]-4-oxo-2-thioxo-3-thiazolidine acetic acid]
ability to inhibit cathepsin D (Human liver cathepsin D): surprising ability to inhibit cathepsin D levels

IC50 (Human liver cathepsin D; 50% inhibition of cathepsin D): 9.9 µM
inhibition at 4.15 µg/mL (stock) (Human liver cathepsin D): 69%
inhibition at 8.3 µg/mL (stock) (Human liver cathepsin D): 76%
Compound: CCOc1cc(C=C2SC(=S)N(C)C2=O)cc(CSc2ccccc2)c1O [Example 73]

Compound: CCCCCOc1ccc(C=C2SC(=S)N(CC(=O)O)C2=O)cc1OCCCCC [Example 91, 5-[(3,4-dipentoxyphenyl)methylene]-4-oxo-2-thioxo-3-thiazolidine acetic acid]
IC50 (Human liver cathepsin D): 9.7 µM
inhibition at 4.15 µg/mL (stock) (Human liver cathepsin D): 72%
ability to inhibit cathepsin D (Human liver cathepsin D): surprising ability to inhibit cathepsin D levels

Compound: CCCCCCCOc1ccc(C=C2SC(=S)N(N(C)C)C2=O)cc1 [Example 83, 5-[(4-heptoxyphenyl)methylene]-2-thioxo-3-dimethylamino-4-thiazolidinone]
inhibition at 4.15 µg/mL (stock) (Human liver cathepsin D): 47%

inhibition at 10 µg/mL (stock) (Human liver cathepsin D): 73.5%
Compound: CN(C)c1ccc(C=C2SC(=S)NC2=O)cc1 [Example 82, 5-[[4-(dimethylamino)phenyl]methylene]-2-thioxo-4-thiazolidinone]

IC50 (Human liver cathepsin D): 11.2 µM
inhibition at 4.15 µg/mL (stock) (Human liver cathepsin D): 67%
inhibition at 8.3 µg/mL (stock) (Human liver cathepsin D): 82%
Compound: CCOc1cc(C=C2SC(=S)N(C)C2=O)ccc1O [Example 88, 5-[(3-ethoxy-4-hydroxyphenyl)methylene]-2-thioxo-3-methyl-4-thiazolidinone]
ability to inhibit cathepsin D (Human liver cathepsin D): surprising ability to inhibit cathepsin D levels

inhibition at 8.3 µg/mL (stock) (Human liver cathepsin D): 42%
Compound: CS(=O)(=O)Nc1cccc(C=C2SC(=S)N(CC(=O)O)C2=O)c1 [Example 86, 5-[(3-methanesulfonamidophenyl)methylene]-4-oxo-2-thioxo-3-thiazolidine acetic acid]

inhibition at 4.15 µg/mL (stock) (Human liver cathepsin D): 51%
Compound: CCOc1cc(C=C2SC(=S)N(C3CCCCC3)C2=O)ccc1O [Example 84, 5-[(3-ethoxy-4-hydroxyphenyl)methylene]-2-thioxo-3-cyclohexyl-4-thiazolidinone]

IC50 (Human liver cathepsin D; 50% inhibition of cathepsin D): 1.7 µM
inhibition at 4.15 µg/mL (stock) (Human liver cathepsin D): 88%
inhibition at 8.3 µg/mL (stock) (Human liver cathepsin D): 96%
Compound: CCOc1cc(C=C2SC(=S)NC2=O)cc(CSc2ccccc2)c1O [Example 72]

Compound: O=C1NC(=S)SC1=Cc1ccc(F)cc1 [Example 13, 5-[(4-fluorophenyl)methylene]-2-thioxo-4-thiazolidinone]
response vs control in vivo at 50 mg/kg (blood glucose level; [1]): 94 ± 4%
response vs control in vivo at 50 mg/kg (blood glucose level; [2]): 88 ± 5%

Compound: CCOc1ccc(C=C2SC(=S)NC2=O)cc1O [Example 46, 5-[(3-hydroxy-4-ethoxyphenyl)methylene]-2-thioxo-4-thiazolidinone]
response vs control in vivo at 50 mg/kg (blood glucose level; [1]): 79 ± 4%
response vs control in vivo at 50 mg/kg (blood glucose level; [2]): 77 ± 5%

Compound: O=C1NC(=S)SC1=Cc1ccc(C(=O)O)cc1 [Example 37, 4-[(2-thioxo-4-thiazolidinone)methylene]benzoic acid]
response vs control in vivo at 50 mg/kg (blood glucose level; [1]): 89 ± 4%
response vs control in vivo at 50 mg/kg (blood glucose level; [2]): 80 ± 4%

Compound: COc1cc(C(C)=C2SC(=S)NC2=O)cc(OC)c1OC [Example 19, 5-[(3,4,5-trimethoxyphenyl)methylmethylene]-2-thioxo-4-thiazolidinone]
Percent of Initial Blood Glucose Level After 2 hrs. (blood glucose level; [3]): 85 ± 14%
Percent of Initial Blood Glucose Level After 4 hrs. (blood glucose level; [4]): 75 ± 4%

Compound: O=C1NC(=S)SC1=Cc1ccccc1-c1ccccc1 [Example 29, 5-[[(1,1'-biphenyl)-2-yl]methylene]-2-thioxo-4-thiazolidinone]
response vs control in vivo at 50 mg/kg (blood glucose level; [1]): 84 ± 5%
response vs control in vivo at 50 mg/kg (blood glucose level; [2]): 77 ± 6%

Compound: O=C1NC(=S)SC1=Cc1ccnc2ccccc12 [Example 3, 5-[(4-quinolinyl)methylene]-2-thioxo-4-thiazolidinone]
response vs control in vivo at 50 mg/kg (blood glucose level; [1]): 90 ± 10%
response vs control in vivo at 50 mg/kg (blood glucose level; [2]): 73 ± 3%

Compound: CC(=C1SC(=S)NC1=O)c1cccc(O)c1 [Example 44, 5-[(3-hydroxyphenyl)methylmethylene]-2-thioxo-4-thiazolidinone]
Percent of Initial Blood Glucose Level After 2 hrs. (blood glucose level; [3]): 98 ± 4%
Percent of Initial Blood Glucose Level After 4 hrs. (blood glucose level; [4]): 88 ± 5%

Compound: COc1cc(C=C2SC(=S)NC2=O)ccc1O [Example 20, 5-[(3-methoxy-4-hydroxyphenyl)methylene]-2-thioxo-4-thiazolidinone]
response vs control in vivo at 50 mg/kg (blood glucose level; [1]): 76 ± 3%
response vs control in vivo at 50 mg/kg (blood glucose level; [2]): 70 ± 5%

Compound: O=C1NC(=S)SC1=Cc1cccc(Cl)c1 [Example 23, 5-[(3-chlorophenyl)methylene]-2-thioxo-4-thiazolidinone]
response vs control in vivo at 50 mg/kg (blood glucose level; [1]): 74 ± 6%
response vs control in vivo at 50 mg/kg (blood glucose level; [2]): 90 ± 6%

Compound: COc1ccc(C=C2SC(=S)NC2=O)c(OC)c1 [Example 12, 5-[(2,4-dimethoxyphenyl)methylene]-2-thioxo-4-thiazolidinone]
response vs control in vivo at 50 mg/kg (blood glucose level; [1]): 90 ± 7%
response vs control in vivo at 50 mg/kg (blood glucose level; [2]): 69 ± 6%

Compound: CCCCOc1ccc(C=C2SC(=S)N(N(C)C)C2=O)cc1OCCCC [Example 94, 5-[(3,4-dibutoxyphenyl)methylene]-2-thioxo-3-dimethylamino-4-thiazolidinone]
inhibition at 4.15 µg/mL (stock) (Human liver cathepsin D): 48%

inhibition at 10 µg/mL (stock) (Human liver cathepsin D): 43%
Compound: O=C1NC(=S)SC1=Cc1cccc2ccccc12 [Example 75, 5-[(1-naphthyl)methylene]-2-thioxo-4-thiazolidinone]

Compound: CCCCCCCOc1ccc(C=C2SC(=S)N(N)C2=O)cc1OC [Example 80, 5-[(3-methoxy-4-heptoxyphenyl)methylene]-2-thioxo-3-amino-4-thiazolidinone]
IC50 (Human liver cathepsin D): 47 µM
inhibition at 8.3 µg/mL (stock) (Human liver cathepsin D): 33%

Compound: O=C1NC(=S)SC1=Cc1ccc(Cl)c(Cl)c1 [Example 36, 5-[(3,4-dichlorophenyl)methylene]-2-thioxo-4-thiazolidinone]
response vs control in vivo at 50 mg/kg (blood glucose level; [1]): 81 ± 7%
response vs control in vivo at 50 mg/kg (blood glucose level; [2]): 90 ± 8%

Compound: O=C1NC(=S)SC1=Cc1cccc(O)c1 [Example 11, 5-[(3-hydroxyphenyl)methylene]-2-thioxo-4-thiazolidinone]
response vs control in vivo at 50 mg/kg (blood glucose level; [1]): 84 ± 3%
response vs control in vivo at 50 mg/kg (blood glucose level; [2]): 85 ± 6%

IC50 (Human liver cathepsin D): 2.2 µM
Compound: COc1c(C(C)(C)C)cc(C=C2SC(=S)NC2=O)cc1C(C)(C)C [Example 87, 5-[[3,5-bis(1,1-dimethylethyl)-4-methoxyphenyl]methylene]-2-thioxo-4-thiazolidinone]

Compound: CCCCOc1ccc(C=C2SC(=S)NC2=O)cc1OC [Example 52, 5-[(3-methoxy-4-butoxyphenyl)methylene]-2-thioxo-4-thiazolidinone, sodium salt]
response vs control in vivo at 50 mg/kg (blood glucose level; 4 h, read-out: Percent of Initial Blood Glucose Level After 4 hrs., 50 mg/kg, intraperitoneal, 4 hrs): 61 ± 4%

IC50 (Human liver cathepsin D): 7.7 µM
inhibition at 4.15 µg/mL (stock) (Human liver cathepsin D): 79%
inhibition at 8.3 µg/mL (stock) (Human liver cathepsin D): 92%
Compound: CCOc1cc(C=C2SC(=S)N(N(C)C)C2=O)ccc1O [Example 90, 5-[(3-ethoxy-4-hydroxyphenyl)methylene]-2-thioxo-3-dimethylamino-4-thiazolidinone]
ability to inhibit cathepsin D (Human liver cathepsin D): surprising ability to inhibit cathepsin D levels

IC50 (Human liver cathepsin D; 50% inhibition of cathepsin D): 9.2 µM
inhibition at 8.3 µg/mL (stock) (Human liver cathepsin D): 71%
Compound: CCOc1cc(C=C2SC(=S)N(N(C)C)C2=O)cc(CSc2ccccc2)c1O [Example 89]

IC50 (Human liver cathepsin D): 3.9 µM
inhibition at 4.15 µg/mL (stock) (Human liver cathepsin D): 74%
Compound: CN1C(=O)C(=Cc2ccc(O)c(C(C)(C)C)c2)SC1=S [Example 92, 5-[[3-(1,1-dimethylethyl)-4-hydroxyphenyl]methylene]-2-thioxo-3-methyl-4-thiazolidinone]
ability to inhibit cathepsin D (Human liver cathepsin D): surprising ability to inhibit cathepsin D levels

Compound: CCCCOc1ccc(CC2SC(=S)NC2=O)cc1OC (centres unmarked) [Example 54, 5-[(3-methoxy-4-butoxyphenyl)methyl]-2-thioxo-4-thiazolidinone]
response vs control in vivo at 50 mg/kg (blood glucose level; [1]): 76 ± 7%
response vs control in vivo at 50 mg/kg (blood glucose level; [2]): 74 ± 6%
